Experimental data: patent US10118935B2, “Melampomagnolide B dimers” (priority 2014, dated 2018)
Like-named read-outs stand apart in the source and are kept apart here.

Tests used:
MALME-3M = test: NCI 60 cell line five dose, Melanoma; conditions: MALME-3M
HCC-2998 = test: NCI 60 cell line five dose, Colon Cancer
SW-620 = test: NCI 60 cell line five dose, Colon Cancer
SF-268 = test: NCI 60 cell line five dose, CNS Cancer
UO-31 = test: NCI 60 cell line five dose, Renal Cancer
SK-OV-3 = test: NCI 60 cell line five dose, Ovarian Cancer
COLO 205 = test: NCI 60 cell line five dose, Colon Cancer
OVCAR-4 = test: NCI 60 cell line five dose, Ovarian Cancer
ACHN = test: NCI 60 cell line five dose, Renal Cancer
SK-MEL-28 = test: NCI 60 cell line five dose, Melanoma; conditions: SK-MEL-28
HCT-15 = test: NCI 60 cell line five dose, Colon Cancer
NCI-H322M = test: NCI 60 cell line five dose, Non-Small Cell Lung Cancer
BT-549 = test: NCI 60 cell line five dose, Breast Cancer
K-562 = test: NCI 60 cell line five dose, Leukemia
MDA-MB-231/ATCC = test: NCI 60 cell line five dose, Breast Cancer
KM12 = test: NCI 60 cell line five dose, Colon Cancer
[1] = system: panel of 60 human cancer cell lines; test: Five-dose growth inhibition, panel; format: cell-based
MDA-MB-435 = test: NCI 60 cell line five dose, Melanoma
SR = test: NCI 60 cell line five dose, Leukemia
UACC-62 = test: NCI 60 cell line five dose, Melanoma
NCI-H522 = test: NCI 60 cell line five dose, Non-Small Cell Lung Cancer
SK-MEL-5 = test: NCI 60 cell line five dose, Melanoma; conditions: SK-MEL-5
U251 = test: NCI 60 cell line five dose, CNS Cancer

Compound: C=C1C(=O)O[C@H]2[C@H]1CC/C(COC(=O)NCCCCCNC(=O)OC/C1=C/CC[C@@]3(C)O[C@H]3[C@H]3OC(=O)C(=C)[C@@H]3CC1)=C\CC[C@@]1(C)O[C@@H]21 [JVM 2-76, bis(((1aR,7aS,10aS,10bS,E)-1a-Methyl-8-methylene-9-oxo-1a,2,3,6,7,7a,8,9,10a,10b-decahydrooxireno[2′,3′:9,10]cyclodeca[1,2-b]furan-5-yl)methyl)pentane-1,5-diyldicarbamate]
- GI50 (MALME-3M): 2.06 µM
- TGI (MALME-3M): 5.24 µM
- CC50 (MALME-3M; read-out: LC50): 27.3 µM
- GI50 (HCC-2998): 6.71 µM
- TGI (HCC-2998): 20.7 µM
- CC50 (HCC-2998; read-out: LC50): 53.9 µM
- GI50 (SW-620): 0.43 µM
- TGI (SW-620): 1.75 µM
- CC50 (SW-620; read-out: LC50): 5.14 µM
- GI50 (SF-268): 3.08 µM
- TGI (SF-268): 12.0 µM
- CC50 (SF-268; read-out: LC50): 42.3 µM
- GI50 (UO-31): 8.9 µM
- TGI (UO-31): 22.5 µM
- CC50 (UO-31; read-out: LC50): 52.3 µM
- GI50 (SK-OV-3): 5.99 µM
- TGI (SK-OV-3): 19.7 µM
- CC50 (SK-OV-3; read-out: LC50): 49.9 µM
- GI50 (COLO 205): 0.52 µM
- TGI (COLO 205): 2.33 µM
- CC50 (COLO 205; read-out: LC50): 7.97 µM
- GI50 (OVCAR-4): 2.72 µM
- TGI (OVCAR-4): 15.2 µM
- CC50 (OVCAR-4; read-out: LC50): 41.9 µM
- GI50 (ACHN): 3.05 µM
- TGI (ACHN): 9.84 µM
- CC50 (ACHN; read-out: LC50): 35.4 µM
- GI50 (SK-MEL-28): 1.58 µM
- TGI (SK-MEL-28): 4.13 µM
- CC50 (SK-MEL-28; read-out: LC50): 12.6 µM
- GI50 (HCT-15): 6.18 µM
- TGI (HCT-15): 20.7 µM
- CC50 (HCT-15; read-out: LC50): 49.8 µM
- GI50 (SNB-19; SNB-19): 3.97 µM
- TGI (SNB-19; SNB-19): 19.0 µM
- CC50 (SNB-19; read-out: LC50, SNB-19): 92.5 µM
- GI50 (NCI-H322M): 16.4 µM
- TGI (NCI-H322M): 41.6 µM
- GI50 (BT-549): 1 µM
- TGI (BT-549): 2.23 µM
- CC50 (BT-549; read-out: LC50): 4.96 µM
- GI50 (K-562): 0.56 µM
- TGI (K-562): 16.1 µM
- CC50 (K-562; read-out: LC50): > 100 µM
- GI50 (MDA-MB-231/ATCC): 1.47 µM
- TGI (MDA-MB-231/ATCC): 3.07 µM
- CC50 (MDA-MB-231/ATCC; read-out: LC50): 6.4 µM
- GI50 (KM12): 6.53 µM
- TGI (KM12): 21.0 µM
- CC50 (KM12; read-out: LC50): 54.2 µM
- growth inhibition (GI50) ([1]; CCRF-CEM, HL-60 (TB), K-562, RPMI-8226, SR, NCI-H522, COLO 205, HCT-116, HT29, SW-620, LOX IMVI, OVCAR-3, RXF 393, MCF7): nano-molar range
- GI50 values ([1]; remaining human cancer cell lines): low micromolar range
- GI50 (MDA-MB-435): 1.51 µM
- TGI (MDA-MB-435): 3.32 µM
- CC50 (MDA-MB-435; read-out: LC50): 7.3 µM
- GI50 (SR): 0.38 µM
- TGI (SR): 2.30 µM
- CC50 (SR; read-out: LC50): > 100 µM
- GI50 (UACC-62): 1.41 µM
- TGI (UACC-62): 3.16 µM
- CC50 (UACC-62; read-out: LC50): 7.04 µM
- GI50 (NCI-H522): 0.22 µM
- TGI (NCI-H522): 0.44 µM
- CC50 (NCI-H522; read-out: LC50): 0.88 µM
- GI50 (SK-MEL-5): 3.19 µM
- TGI (SK-MEL-5): 12.2 µM
- CC50 (SK-MEL-5; read-out: LC50): 37 µM
- GI50 (U251): 3.51 µM
- TGI (U251): 13.7 µM
- CC50 (U251; read-out: LC50): 51.5 µM

Compound: C=C1C(=O)O[C@H]2[C@H]1CC/C(COC(=O)CCC(=O)NCCCCCCCCNC(=O)CCC(=O)OC/C1=C/CC[C@@]3(C)O[C@H]3[C@H]3OC(=O)C(=C)[C@@H]3CC1)=C\CC[C@@]1(C)O[C@@H]21 [JVM 2-87, bis(((1aR,7aS,10aS,10bS,E)-1a-Methyl-8-methylene-9-oxo-1a,2,3,6,7,7a,8,9,10a,1b-decahydrooxireno[2′,3′:9,10]cyclodeca[1,2-b]furan-5-yl)methyl)4,4′-(octane-1,8-diylbis(azanediyl))bis(4-oxobutanoate)]
- GI50 (MALME-3M): 2.04 µM
- TGI (MALME-3M): 4.04 µM
- GI50 (HCC-2998): 4.12 µM
- TGI (HCC-2998): 16.7 µM
- GI50 (SW-620): 1.22 µM
- TGI (SW-620): 2.97 µM
- GI50 (SF-268): 3.34 µM
- TGI (SF-268): 11.6 µM
- GI50 (UO-31): 10.9 µM
- TGI (UO-31): 24.2 µM
- GI50 (SK-OV-3): 6.45 µM
- TGI (SK-OV-3): 19.7 µM
- GI50 (COLO 205): 1.35 µM
- TGI (COLO 205): 3.14 µM
- GI50 (OVCAR-4): 1.64 µM
- TGI (OVCAR-4): 3.92 µM
- GI50 (ACHN): 3.13 µM
- TGI (ACHN): 10.9 µM
- GI50 (SK-MEL-28): 1.65 µM
- TGI (SK-MEL-28): 3.23 µM
- GI50 (HCT-15): 3.6 µM
- TGI (HCT-15): 15.6 µM
- CC50 (SNB-19): > 100 µM
- GI50 (SNB-19; SNB-19): 4.15 µM
- TGI (SNB-19; SNB-19): 19.9 µM
- GI50 (NCI-H322M): 16.3 µM
- TGI (NCI-H322M): 31.4 µM
- GI50 (BT-549): 1.23 µM
- TGI (BT-549): 2.51 µM
- GI50 (K-562): 0.97 µM
- TGI (K-562): 12.9 µM
- GI50 (MDA-MB-231/ATCC): 1.97 µM
- TGI (MDA-MB-231/ATCC): 4.41 µM
- GI50 (KM12): 9.46 µM
- TGI (KM12): 22.9 µM
- growth inhibition (GI50) ([1]; CCRF-CEM, HL-60 (TB), K-562, SR): nanomolar range
- growth inhibition (GI50) ([1]; NCI-H522, RXF 393, MCF7): nanomolar range
- growth inhibition (GI50) ([1]; other human tumor cell lines in the panel): low micromolar range
- GI50 (MDA-MB-435): 1.8 µM
- TGI (MDA-MB-435): 3.69 µM
- GI50 (SR): 0.41 µM
- TGI (SR): 2.10 µM
- GI50 (UACC-62): 1.97 µM
- TGI (UACC-62): 4.20 µM
- GI50 (NCI-H522): 0.48 µM
- TGI (NCI-H522): 1.80 µM
- GI50 (SK-MEL-5): 3.13 µM
- TGI (SK-MEL-5): 11.1 µM
- GI50 (U251): 3.03 µM
- TGI (U251): 10.6 µM
